The target of this experiment is purified human Factor XIa (Homo sapiens (Human), UniProt P03951). As to the kind of experiment: Factor XIa enzyme inhibition assay (chromogenic substrate S-2366). Conditions: substrate S-2366, pH 7.4. The experiment is classed as biochemical. The procedure:
The effectiveness of compounds of the present invention as inhibitors of the coagulation Factors XIa, VIIa, IXa, Xa, XIIa, plasma kallikrein or thrombin, can be determined using a relevant purified serine protease, respectively, and an appropriate synthetic substrate. The rate of hydrolysis of the chromogenic or fluorogenic substrate by the relevant serine protease was measured both in the absence and presence of compounds of the present invention. […] A decrease in the rate of absorbance or fluorescence change in the presence of inhibitor is indicative of enzyme inhibition. Such methods are known to one skilled in the art. The results of this assay are expressed as the inhibitory constant, Ki.
Values of Ki were determined by allowing the protease to react with the substrate in the presence of the inhibitor. Reactions were allowed to go for periods of 20-180 minutes (depending on the protease) and the velocities (rate of absorbance or fluorescence change versus time) were measured. The following relationships were used to calculate Ki values: (vo−vs)/vs=I/(Ki(1+S/Km)) for a competitive inhibitor with one binding site; or vs/vo=A+((B−A)/1+((IC50/(I)n))); and Ki=IC50/(1+S/Km) for a competitive inhibitor where: […]

Where a name gives a salt, the structure may show the parent alone.

Sequence of purified human Factor XIa (P03951 388-625): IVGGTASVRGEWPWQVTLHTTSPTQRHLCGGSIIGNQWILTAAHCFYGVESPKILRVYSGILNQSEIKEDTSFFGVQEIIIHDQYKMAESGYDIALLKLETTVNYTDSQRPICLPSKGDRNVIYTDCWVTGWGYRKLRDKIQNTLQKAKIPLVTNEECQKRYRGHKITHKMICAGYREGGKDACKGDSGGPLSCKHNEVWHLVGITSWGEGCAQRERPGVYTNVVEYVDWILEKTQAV
Sequence of purified human Factor XIa (P03951 19-387 partner): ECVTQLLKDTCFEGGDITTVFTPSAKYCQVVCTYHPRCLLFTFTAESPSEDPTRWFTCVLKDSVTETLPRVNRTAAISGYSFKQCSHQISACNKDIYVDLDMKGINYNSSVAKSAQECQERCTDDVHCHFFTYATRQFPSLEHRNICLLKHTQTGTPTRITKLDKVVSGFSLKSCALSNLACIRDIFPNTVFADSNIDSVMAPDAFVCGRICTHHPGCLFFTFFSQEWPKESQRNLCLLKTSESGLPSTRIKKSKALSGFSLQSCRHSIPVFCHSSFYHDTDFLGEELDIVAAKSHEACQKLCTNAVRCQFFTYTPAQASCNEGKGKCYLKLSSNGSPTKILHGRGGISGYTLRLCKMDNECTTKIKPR

As for `COC(=O)Nc1ccc2c(c1)NC(=O)CC/C=C/C[C@H](NC(=O)c1ccc(C#N)cc1)c1nc-2c(Cl)[nH]1` [Example 136, [(E)-(S)-18-Chloro-15-(4-cyano-benzoylamino)-9-oxo-8,17,19-triaza-tricyclo[14.2.1.0^2,7]nonadeca-1(18),2,4,6,12,16(19)-hexaen-5-yl]-carbamic acid methyl ester, 1 TFA salt], the Ki amounted to 962 nM.
To `COC(=O)Nc1ccc2c(c1)NC(=O)CC/C=C/C[C@H](NC(=O)/C=C/c1c(C(F)(F)F)ccc(Cl)c1F)c1nc-2c(Cl)[nH]1` [Example I-311] belongs less than 5 nM.
To `COC(=O)Nc1ccc2c(c1)NC(=O)CCCC[C@H](NC(=O)c1cn(-c3cccc(Cl)c3)nn1)c1nc-2c[nH]1` [Example I-10] belongs 217 nM.
To `CCOC(=O)C1CCCCC(NC(=O)/C=C/c2cc(Cl)ccc2-n2cnnn2)c2cc(cc(=O)[nH]2)-c2ccc(NC(=O)OC)cc2N1` (centres unmarked) [II-62] belongs less than 5 nM; to `COC(=O)Nc1ccc2c(c1)CCC/C=C/C[C@H](NC(=O)/C=C/c1cc(Cl)ccc1-n1cnnn1)c1nc-2c[nH]1` [Example 4, {(E)-(S)-14-[(E)-3-(5-Chloro-2-tetrazol-1-yl-phenyl)-acryloylamino]-16,18-diaza-tricyclo[13.2.1.0^2,7]octadeca-1(17),2,4,6,11,15(18)-hexaen-5-yl}-carbamic acid methyl ester], 636 nM; to `COC(=O)Nc1ccc2c(c1)NC(=O)CCCC[C@H](NC(=O)c1ccc3ncccc3c1)c1nc-2c[nH]1` [Example I-14], 2920 nM.
`COC(=O)Nc1ccc2c(c1)NC(=O)CC/C=C/C[C@H](NC(=O)c1ccc3c(c1)CCC[C@@H]3N)c1nc-2c[nH]1` [Example I-153] registered a Ki of 1650 nM.
To `COC(=O)Nc1ccc2c(c1)NC(=O)CCCC[C@H](NC(=O)c1c(F)cc(C)cc1F)c1cc-2ccn1` [II-4] belongs 111 nM.
To `COC(=O)Nc1ccc2c(c1)NC(C(F)(F)F)CCCC[C@H](NC(=O)C1CCC(CN)CC1)c1cc-2ccn1` (some centres unmarked) [II-13] belongs less than 5 nM.
To `COC(=O)Nc1ccc2c(c1)NCCCCC[C@H](NC(=O)/C=C/c1cc(Cl)ccc1-n1cnnn1)c1nc-2c[nH]1` [Example 11, {(S)-14-[(E)-3-(5-Chloro-2-tetrazol-1-yl-phenyl)-acryloylamino]-8,16,18-triaza-tricyclo[13.2.1.0^2,7]octadeca-1(17),2,4,6,15(18)-pentaen-5-yl}-carbamic acid methyl ester] belongs 6 nM; to `COC(=O)Nc1ccc2c(c1)NC(=O)CC/C=C/C[C@H](NC(=O)[C@H]1CC[C@H](CN)CC1)c1cc-2ccn1` [Example 90, {(E)-(S)-15-[(4-Aminomethyl-cyclohexanecarbonyl)-amino]-9-oxo-8,17-diaza-tricyclo[14.3.1.0^2,7]icosa-1(20),2(7),3,5,12,16,18-heptaen-5-yl}-carbamic acid methyl ester], less than 5 nM; to `COC(=O)Nc1ccc2c(c1)N[C@@H](C(=O)NCc1ccccn1)CCCC[C@H](NC(=O)/C=C/c1cc(Cl)ccc1-n1cnnn1)c1cncc-2c1` [II-58], 21 nM.
`CCOC(=O)[C@@H]1CCCC[C@H](NC(=O)/C=C/c2cc(Cl)ccc2-n2cnnn2)c2nc(c[nH]2)-c2ccc(NC(=O)OC)cc2N1` [Example I-67, (9S,14S)-14-[(E)-3-(5-Chloro-2-tetrazol-1-yl-phenyl)-acryloylamino]-5-methoxycarbonylamino-8,16,18-triaza-tricyclo[13.2.1.0^2,7]octadeca-1(17),2,4,6,15(18)-pentaene-9-carboxylic acid ethyl ester, 2 TFA salt] registered a Ki of 203 nM.
To `CCOC(=O)[C@@H]1CCCC[C@H](NC(=O)/C=C/c2c(-n3cnnn3)ccc(Cl)c2F)c2cc(ccn2)-c2ccc(NC(=O)OCCOC)cc2N1` [II-43] belongs 938 nM; to `COC(=O)Nc1ccc2c(c1)NC(=O)CCC(C)CC[C@H](NC(=O)/C=C/c1cc(Cl)ccc1-n1cnnn1)c1nc-2c[nH]1` (single isomer, unassigned) [Example 61], less than 5 nM; to `COC(=O)Nc1ccc2c(c1)NC(=O)CC/C=C/C[C@H](NC(=O)/C=C/c1cccc(Cl)c1)c1nc-2c(Cl)[nH]1` [Example I-309], 9 nM.
To `COC(=O)Nc1ccc2c(c1)NC(C(N)=O)C(C)CCC[C@H](NC(=O)/C=C/c1cc(Cl)ccc1-n1cnnn1)c1nc-2c[nH]1` (some centres unmarked) [Example I-114] belongs 296 nM; to `COC(=O)Nc1ccc2c(c1)NC(=O)CC/C=C/C[C@H](NC(=O)c1ccc(C(=N)N)cc1)c1cc-2ccn1` [II-3], less than 5 nM.
For the compound `CCOC(=O)C1CCCC[C@H](NC(=O)/C=C/c2cc(Cl)ccc2-n2cnnn2)c2cc(ccn2)-c2ccc(NC(=O)OC)cc2N1` (some centres unmarked) [II-18], the affinity corresponds to a Ki of 572 nM.
With `COC(=O)Nc1ccc2c(c1)NC(=O)CC/C=C/CC(NC(=O)/C=C/c1cc(Cl)ccc1-n1cnnn1)c1cccc-2c1` (centres unmarked) [Example 93, {(E)-15-[(E)-3-(5-Chloro-2-tetrazol-1-yl-phenyl)-acryloylamino]-9-oxo-8-aza-tricyclo[14.3.1.0^2,7]icosa-1(20),2,4,6,12,16,18-heptaen-5-yl}-carbamic acid methyl ester], the Ki was less than 5 nM.
To `COC(=O)Nc1ccc2c(c1)NC(=O)CCCC[C@H](NC(=O)c1ccc3cccnc3c1)c1nc-2c[nH]1` [Example I-262] belongs 675 nM.
On to `COC(=O)Nc1ccc2c(c1)NC(=O)CCCC[C@H](NC(=O)c1cc(-c3cccc(Cl)c3)no1)c1nc-2c[nH]1` [Example I-9], for which the inhibition constant Ki was determined as 1870 nM.
`COC(=O)Nc1ccc2c(c1)N[C@@H](C(=O)N1CCN(C)CC1)CCCC[C@H](NC(=O)/C=C/c1cc(Cl)ccc1-n1cnnn1)c1cc-2ccn1` [II-35] registered an inhibition constant Ki of less than 5 nM.
As for `COC(=O)Nc1ccc2c(c1)NC(=O)CCCC[C@H](NC(=O)c1c(F)cc3c(ncn3C)c1F)c1nc-2c(F)[nH]1` [Example I-21], the Ki was less than 5 nM.
To `COC(=O)Nc1ccc2c(c1)NC(=O)CC/C=C/CC(NC(=O)/C=C/c1cc(Cl)ccc1-n1cnnn1)c1cc(Cl)nnc1-2` (centres unmarked) [Example 89, Methyl((E)-3-chloro-5-((E)-3-(5-chloro-2-(1H-tetrazol-1-yl)phenyl)acrylamido)-11-oxo-5,6,9,10,11,12-hexahydrobenzo[b]pyridazino[3,4-d][1]azacyclododecin-14-yl)carbamate] belongs 1060 nM; to `COC(=O)Nc1ccc2c(c1)NCCCCC[C@H](NC(=O)/C=C/c1c(C(C)=O)ccc(Cl)c1F)c1nc-2c(C#N)[nH]1` [Example I-265], 133 nM.
To `COC(=O)Nc1ccc2c(c1)NC(=O)C(C)CCC[C@H](NC(=O)c1c(F)cc3c(ccn3C)c1F)c1nc-2c(Cl)[nH]1` (some centres unmarked) [Example I-59] belongs less than 5 nM; to `COC(=O)Nc1ccc2c(c1)NCC(F)(F)C(=O)NC[C@H](NC(=O)/C=C/c1cc(Cl)ccc1-n1cnnn1)c1nc-2c[nH]1` [Example 21, {(S)-14-[(E)-3-(5-Chloro-2-tetrazol-1-yl-phenyl)-acryloylamino]-10,10-difluoro-11-oxo-8,12,16,18-tetraaza-tricyclo[13.2.1.0^2,7]octadeca-1(17),2,4,6,15(18)-pentaen-5-yl}-carbamic acid methyl ester], 4520 nM.
`COC(=O)Nc1ccc2c(c1)NC(C(F)(F)F)CCCC[C@H](NC(=O)c1ccc(C(=N)N)cc1)c1cc-2ccn1` (some centres unmarked) [II-15] yielded an inhibition constant Ki of 4160 nM.
Compound `COC(=O)Nc1ccc2c(c1)NC(=O)CCCC[C@H](NC(=O)c1ccc3c(c1)CCCN3)c1nc-2c[nH]1` [Example I-13] had an inhibitory constant (Ki) of 311 nM.
To `COC(=O)Nc1ccc2c(c1)NC(=O)CCCCC(NC(=O)/C=C/c1cc(Cl)ccc1-n1cnnn1)c1cc-2nc(C)n1` (centres unmarked) [II-10] belongs 23 nM; to `O=C(/C=C/c1cc(Cl)ccc1-n1cnnn1)N[C@H]1CCCCCNc2cc(NC(=O)OC[C@H]3CCCO3)ccc2-c2c[nH]c1n2` [Example I-124], less than 5 nM; to `CCOC(=O)CN1CCCC[C@H](NC(=O)/C=C/c2cc(Cl)ccc2-n2cnnn2)c2nc(c[nH]2)-c2ccc(NC(=O)OC)cc2C1` [Example I-121], 736 nM.
To `COC(=O)c1ccc2c(c1)-c1c[nH]c(n1)[C@@H](NC(=O)/C=C/c1cc(Cl)ccc1-n1cnnn1)C/C=C/CCC(=O)N2` [Example I-284] belongs 102 nM; to `O=C(/C=C/c1cc(Cl)ccc1-n1cnnn1)N[C@H]1C/C=C/COC(=O)Nc2ccccc2-c2nc1[nH]c2Cl` [Example 121, (E)-N-((E)-(S)-18-Chloro-9-oxo-10-oxa-8,17,19-triaza-tricyclo[14.2.1.0^2,7]nonadeca-1(18),2,4,6,12,16(19)-hexaen-15-yl)-3-(5-chloro-2-tetrazol-1-yl-phenyl)-acrylamide], less than 5 nM.
To `COC(=O)Nc1ccc2c(c1)NC(=O)CC/C=C/C[C@H](NC(=O)c1ccc3c(c1)CCC[C@H]3N)c1nc-2c[nH]1` [Example I-152] belongs 21 nM; to `COC(=O)Nc1ccc2c(c1)N[C@@H](C(F)(F)F)CCCC[C@H](NC(=O)/C=C/c1cc(Cl)ccc1-n1cnnn1)c1nc-2c(Cl)[nH]1` [Example I-60], 616 nM.
The compound `COC(=O)Nc1ccc2c(c1)NC(=O)CCCC[C@H](NC(=O)/C=C/c1cc(Cl)ccc1-n1cnnn1)C1=NC=C2O1` [Example I-134, Methyl N-[(14S)-14-[(2E)-3-[5-chloro-2-(1H-1,2,3,4-tetrazol-1-yl)phenyl]prop-2-enamido]-9-oxo-18-oxa-8,16-diazatricyclo[13.2.1.0^2,7]octadeca-1(17),2(7),3,5,15-pentaen-5-yl]carbamate, trifluoroacetic acid salt] came in with a Ki of less than 5 nM.

In general, Ki refers to a measure of affinity in units of concentration, obtained from inhibition or displacement. Read a high Ki as a looser hold on the target.

Values taken from patent US8940720B2, “Macrocycles as factor XIa inhibitors” (Bristol-Myers Squibb Company, priority 2010, dated 2015).
